Measured values published in ChEMBL document CHEMBL3045535, “Evaluation of lufenuron as a chemosterilant against fruit flies of the genus Anastrepha (Diptera: Tephritidae)” (2010).
The source made the active and inactive calls. No cut-off for these calls is given here.

Tests used:
[1] = test system: Anastrepha serpentina; experiment: Reduction of fertility in 7 days old adult of Anastrepha serpentina assessed as reduction of egg hatching at 5 mg/g treated with diet measured after 7 days oviposition; format: functional; design: scale not given: the % may be the effect or the level left
[2] = test system: Anastrepha ludens; experiment: Reduction of fertility in 7 days old adult of Anastrepha ludens assessed as reduction of egg hatching at 0.1 mg/g treated with diet measured after 1 day oviposition; format: functional; design: scale not given: the % may be the effect or the level left
[3] = test system: Anastrepha obliqua; experiment: Reduction of fertility in 7 days old adult of Anastrepha obliqua assessed as reduction of egg hatching at 30 mg/g treated with diet measured after 11 days oviposition; format: functional; design: scale not given: the % may be the effect or the level left
[4] = test system: Anastrepha striata; experiment: Reduction of fertility in 7 days old adult of Anastrepha striata assessed as reduction of egg hatching at 1 mg/g treated with diet measured after 9 days oviposition; format: functional; design: scale not given: the % may be the effect or the level left
[5] = test system: Anastrepha ludens; experiment: Reduction of fertility in 7 days old adult of Anastrepha ludens assessed as reduction of egg hatching at 10 mg/g treated with diet measured after 5 days oviposition; format: functional; design: scale not given: the % may be the effect or the level left
[6] = test system: Anastrepha obliqua; experiment: Reduction of fertility in 7 days old adult of Anastrepha obliqua assessed as reduction of egg hatching at 1 mg/g treated with diet measured after 3 days oviposition; format: functional; design: scale not given: the % may be the effect or the level left
[7] = test system: Anastrepha obliqua; experiment: Reduction of fertility in 7 days old adult of Anastrepha obliqua assessed as reduction of egg hatching at 10 mg/g treated with diet measured after 11 days oviposition; format: functional; design: scale not given: the % may be the effect or the level left
[8] = test system: Anastrepha striata; experiment: Effect on fecundity in 7 days old adult of Anastrepha striata at 0.1 to 30 mg/g treated with diet after 24 hr; format: functional, organism-based
[9] = test system: Anastrepha obliqua; experiment: Reduction of fertility in 7 days old adult of Anastrepha obliqua assessed as reduction of egg hatching at 5 mg/g treated with diet measured after 7 days oviposition; format: functional; design: scale not given: the % may be the effect or the level left
[10] = test system: Anastrepha ludens; experiment: Effect on fecundity in 7 days old adult female of Anastrepha ludens at 30 mg/g treated with diet after 24 hr in presence of untreated adult male of Anastrepha ludens; format: functional, organism-based
[11] = test system: Anastrepha striata; experiment: Reduction of fertility in 7 days old adult of Anastrepha striata assessed as reduction of egg hatching at 5 mg/g treated with diet measured after 5 days oviposition; format: functional; design: scale not given: the % may be the effect or the level left
[12] = test system: Anastrepha ludens; experiment: Effect on fertility in 7 days old adult male of Anastrepha ludens at 30 mg/g treated with diet after 24 hr in presence of untreated adult female of Anastrepha ludens; format: functional, organism-based
[13] = test system: Anastrepha striata; experiment: Reduction of fertility in 7 days old adult of Anastrepha striata assessed as reduction of egg hatching at 1 mg/g treated with diet measured after 11 days oviposition; format: functional; design: scale not given: the % may be the effect or the level left
[14] = test system: Anastrepha striata; experiment: Reduction of fertility in 7 days old adult of Anastrepha striata assessed as reduction of egg hatching at 10 mg/g treated with diet measured after 1 day oviposition; format: functional; design: scale not given: the % may be the effect or the level left
[15] = test system: Anastrepha ludens; experiment: Reduction of fertility in 7 days old adult of Anastrepha ludens assessed as reduction of egg hatching at 0.5 mg/g treated with diet measured after 9 days oviposition; format: functional; design: scale not given: the % may be the effect or the level left
[16] = test system: Anastrepha serpentina; experiment: Reduction of fertility in 7 days old adult of Anastrepha serpentina assessed as reduction of egg hatching at 5 mg/g treated with diet measured after 3 days oviposition; format: functional; design: scale not given: the % may be the effect or the level left
[17] = test system: Anastrepha ludens; experiment: Reduction of fertility in 7 days old adult of Anastrepha ludens assessed as reduction of egg hatching at 30 mg/g treated with diet measured after 5 days oviposition; format: functional; design: scale not given: the % may be the effect or the level left
[18] = test system: Anastrepha ludens; experiment: Reduction of fertility in 7 days old adult of Anastrepha ludens assessed as reduction of egg hatching at 1 mg/g treated with diet measured after 9 days oviposition; format: functional; design: scale not given: the % may be the effect or the level left
[19] = test system: Anastrepha serpentina; experiment: Effect on fecundity in 7 days old adult male of Anastrepha serpentina at 30 mg/g treated with diet after 24 hr in presence of untreated adult female of Anastrepha serpentina; format: functional, organism-based
[20] = test system: Anastrepha obliqua; experiment: Reduction of fertility in 7 days old adult of Anastrepha obliqua assessed as reduction of egg hatching at 1 mg/g treated with diet measured after 5 days oviposition; format: functional; design: scale not given: the % may be the effect or the level left
[21] = test system: Anastrepha striata; experiment: Reduction of fertility in 7 days old adult of Anastrepha striata assessed as reduction of egg hatching at 10 mg/g treated with diet measured after 9 days oviposition; format: functional; design: scale not given: the % may be the effect or the level left
[22] = test system: Anastrepha serpentina; experiment: Reduction of fertility in 7 days old adult of Anastrepha serpentina assessed as reduction of egg hatching at 0.5 mg/g treated with diet measured after 3 days oviposition; format: functional; design: scale not given: the % may be the effect or the level left
[23] = test system: Anastrepha ludens; experiment: Reduction of fertility in 7 days old adult of Anastrepha ludens assessed as reduction of egg hatching at 0.5 mg/g treated with diet measured after 11 days oviposition; format: functional; design: scale not given: the % may be the effect or the level left
[24] = test system: Anastrepha obliqua; experiment: Reduction of fertility in 7 days old adult of Anastrepha obliqua assessed as reduction of egg hatching at 5 mg/g treated with diet measured after 3 days oviposition; format: functional; design: scale not given: the % may be the effect or the level left
[25] = test system: Anastrepha striata; experiment: Reduction of fertility in 7 days old adult of Anastrepha striata assessed as reduction of egg hatching at 0.5 mg/g treated with diet measured after 1 day oviposition; format: functional; design: scale not given: the % may be the effect or the level left
[26] = test system: Anastrepha ludens; experiment: Reduction of fertility in 7 days old adult of Anastrepha ludens assessed as reduction of egg hatching at 10 mg/g treated with diet measured after 9 days oviposition; format: functional; design: scale not given: the % may be the effect or the level left
[27] = test system: Anastrepha serpentina; experiment: Reduction of fertility in 7 days old adult of Anastrepha serpentina assessed as reduction of egg hatching at 30 mg/g treated with diet measured after 11 days oviposition; format: functional; design: scale not given: the % may be the effect or the level left
[28] = test system: Anastrepha striata; experiment: Effect on fertility in 7 days old adult male of Anastrepha striata at 30 mg/g treated with diet after 24 hr in presence of untreated adult female of Anastrepha striata; format: functional, organism-based
[29] = test system: Anastrepha striata; experiment: Reduction of fertility in 7 days old adult of Anastrepha striata assessed as reduction of egg hatching at 30 mg/g treated with diet measured after 7 days oviposition; format: functional; design: scale not given: the % may be the effect or the level left
[30] = test system: Anastrepha serpentina; experiment: Effect on fertility in 7 days old adult male of Anastrepha serpentina at 30 mg/g treated with diet after 24 hr in presence of untreated adult female of Anastrepha serpentina; format: functional, organism-based
[31] = test system: Anastrepha serpentina; experiment: Reduction of fertility in 7 days old adult of Anastrepha serpentina assessed as reduction of egg hatching at 30 mg/g treated with diet measured after 7 days oviposition; format: functional; design: scale not given: the % may be the effect or the level left
[32] = test system: Anastrepha obliqua; experiment: Reduction of fertility in 7 days old adult of Anastrepha obliqua assessed as reduction of egg hatching at 0.1 mg/g treated with diet measured after 5 days oviposition; format: functional; design: scale not given: the % may be the effect or the level left
[33] = test system: Anastrepha ludens; experiment: Reduction of fertility in 7 days old adult of Anastrepha ludens assessed as reduction of egg hatching at 30 mg/g treated with diet measured after 9 days oviposition; format: functional; design: scale not given: the % may be the effect or the level left
[34] = test system: Anastrepha obliqua; experiment: Reduction of fertility in 7 days old adult of Anastrepha obliqua assessed as reduction of egg hatching at 30 mg/g treated with diet measured after 5 days oviposition; format: functional; design: scale not given: the % may be the effect or the level left
[35] = test system: Anastrepha serpentina; experiment: Effect on fecundity in 7 days old adult female of Anastrepha serpentina at 30 mg/g treated with diet after 24 hr in presence of untreated adult male of Anastrepha serpentina; format: functional, organism-based
[36] = test system: Anastrepha ludens; experiment: Reduction of fertility in 7 days old adult of Anastrepha ludens assessed as reduction of egg hatching at 10 mg/g treated with diet measured after 11 days oviposition; format: functional; design: scale not given: the % may be the effect or the level left
[37] = test system: Anastrepha striata; experiment: Reduction of fertility in 7 days old adult of Anastrepha striata assessed as reduction of egg hatching at 0.5 mg/g treated with diet measured after 9 days oviposition; format: functional; design: scale not given: the % may be the effect or the level left
[38] = test system: Anastrepha striata; experiment: Reduction of fertility in 7 days old adult of Anastrepha striata assessed as reduction of egg hatching at 0.1 mg/g treated with diet measured after 11 days oviposition; format: functional; design: scale not given: the % may be the effect or the level left
[39] = test system: Anastrepha striata; experiment: Reduction of fertility in 7 days old adult of Anastrepha striata assessed as reduction of egg hatching at 1 mg/g treated with diet measured after 1 day oviposition; format: functional; design: scale not given: the % may be the effect or the level left
[40] = test system: Anastrepha obliqua; experiment: Effect on fecundity in 7 days old adult female of Anastrepha obliqua at 30 mg/g treated with diet after 24 hr in presence of untreated adult male of Anastrepha obliqua; format: functional, organism-based

## O=C(NC(=O)c1c(F)cccc1F)Nc1cc(Cl)c(OC(F)(F)C(F)C(F)(F)F)cc1Cl (racemic) [LUFENURON]
[1]
  Activity: 96.7%
[2]
  Activity: 26.7%
[3]
  Activity: 2%
[4]
  Activity: 4.7%
[5]
  Activity: 2.7%
[6]
  Activity: 0%
[7]
  Activity: 0.7%
[8]
  Activity: Active
[9]
  Activity: 0%
[10]
  Activity: inactive
[11]
  Activity: 2.7%
[12]
  Activity: inactive
[13]
  Activity: 8.7%
[14]
  Activity: 2%
[15]
  Activity: 16%
[16]
  Activity: 58.9%
[17]
  Activity: 4%
[18]
  Activity: 20%
[19]
  Activity: inactive
[20]
  Activity: 0%
[21]
  Activity: 6%
[22]
  Activity: 87.3%
[23]
  Activity: 26.7%
[24]
  Activity: 2.7%
[25]
  Activity: 13.3%
[26]
  Activity: 14.7%
[27]
  Activity: 78%
[28]
  Activity: inactive
[29]
  Activity: 0.7%
[30]
  Activity: inactive
[31]
  Activity: 54.2%
[32]
  Activity: 8.7%
[33]
  Activity: 15.3%
[34]
  Activity: 0%
[35]
  Activity: inactive
[36]
  Activity: 16.7%
[37]
  Activity: 40.7%
[38]
  Activity: 72.7%
[39]
  Activity: 6.7%
[40]
  Activity: inactive
